Series [1] has as its target T1, mouse SGLT1 (Mus musculus, UniProt Q8C3K6).
T1 construct: expressed in transfected cells; host or cells: HEK293 (per abstract)
T1 sequence (Q8C3K6 1-665): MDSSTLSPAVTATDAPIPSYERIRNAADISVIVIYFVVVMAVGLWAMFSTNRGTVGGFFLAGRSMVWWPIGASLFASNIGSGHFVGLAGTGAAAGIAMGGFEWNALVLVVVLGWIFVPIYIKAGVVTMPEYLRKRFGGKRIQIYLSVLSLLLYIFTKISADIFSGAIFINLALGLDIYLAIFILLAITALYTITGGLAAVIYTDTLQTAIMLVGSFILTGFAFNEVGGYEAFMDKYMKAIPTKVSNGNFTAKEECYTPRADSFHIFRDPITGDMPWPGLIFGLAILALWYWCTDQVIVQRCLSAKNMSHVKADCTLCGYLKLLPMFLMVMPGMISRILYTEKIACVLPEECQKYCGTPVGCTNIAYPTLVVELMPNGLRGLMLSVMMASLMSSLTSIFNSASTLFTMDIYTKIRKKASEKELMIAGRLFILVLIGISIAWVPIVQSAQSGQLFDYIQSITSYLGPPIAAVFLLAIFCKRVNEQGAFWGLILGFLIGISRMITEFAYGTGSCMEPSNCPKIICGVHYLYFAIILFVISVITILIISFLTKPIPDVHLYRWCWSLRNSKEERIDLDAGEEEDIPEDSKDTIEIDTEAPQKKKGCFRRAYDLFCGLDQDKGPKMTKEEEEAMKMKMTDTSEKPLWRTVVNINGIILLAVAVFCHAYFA
Briefly: 14C-AMG uptake assay, HEK293 cells expressing mouse SGLT1. Type of series: cell-based. As to conditions: mean ± SD. The text has this:
Methods for generating cell lines expressing mouse, rat, and dog SGLT1 and SGLT2 are published (Powell et al. [2013b], [2014]). Full-length coding sequence of human SGLT1 (NP_000334) and human SGLT2 (NP_003032.1) with an HA-tag at the N-terminus were cloned into the mammalian expression vector pIRESpuro2 (Clontech, Mountain View, CA). HEK293 cells (ATCC, Manassas, VA) were transfected with the pIRESpuro2 vector containing human SGLT1 or SGLT2 and bulk stable cell lines were selected in the presence of 0.5 μg/mL of puromycin.
Cell lines expressing SGLT1 or SGLT2 were plated into poly-D-lysine-coated 384-well plates, and culture overnight in cell growth medium. Cells were washed, and then incubated in uptake buffer ([…], […] KCl, […] CaCl2, […] MgCl2, […] HEPES/Tris, 1 mg/mL of bovine serum albumin, pH7.4) containing [^14C]α-methylglucopyranoside (^14C-AMG), a nonmetabolizable glucose analog specific for sodium-dependent glucose transporters (Wright and Turk [2004]). The inhibition of SGLT1 or SGLT2 was determined by measuring SGLT1/2-mediated ^14C-AMG uptake in the presence of increasing compound concentrations of LP-925219. […] Standard sigmoidal dose–response model curves were fitted, and the IC50 value was computed as the LP-925219 concentration that inhibited the ^14C-AMG uptake by 50% between baseline and maximum uptake.

Series [2] is described as follows: Pharmacokinetics in mice (intravenous and oral). As to conditions: mouse. The format is in vivo. As to the method: Adult male C57BL/6J mice (25–35 g) were maintained on chow diet, had free access to water and were conscious through the study. LP-925219 was delivered by bolus intravenous administration at 1 mg/kg or by oral gavage at a dose of 10 mg/kg; 0.1% Tween-80 served as vehicle. Following intravenous injection, serial blood samples were collected in Ethylenediaminetetraacetic acid-containing tubes through 6 h. Following oral administration, serial blood samples were collected through 24 h. The plasma fraction was immediately separated by centrifugation at 4°C, and then stored at −20°C until sample analysis. To quantify LP-925219 concentrations, plasma samples were extracted with acetonitrile-water-formic acid (80:20:0.1) containing verapamil as internal standard at a concentration of 1 μmol/L. Extracted samples were analyzed by LC/MS-MS using a Surveyor HPLC system with a TSQ triple quadrupole mass spectrometer coupled with an Electrospray ionization source (Thermo Fisher Scientific, Waltham, MA). XCalibur 2.0 SR2 software (Thermo Fisher Scientific) was used for instrument control and data calculation. A rapid LC gradient with ammonium acetate […] (pH ∼6) and acetonitrile was used. Calculations were made by normalizing the area counts of compound to the area counts of the internal standard (relative area counts).
All plasma concentration versus time data for LP-925219 were analyzed using noncompartmental analysis, either extravascular administration (for oral administration) or bolus IV administration (for intravenous administration), of Phoenix™ WinNonlin® (version 6.3, Pharsight, Inc. Mountain View, CA). The half-life during the terminal phase was calculated from the elimination rate constant (λ) determined by the linear regression analysis of the log-linear part of the plasma concentration curve. The LP-925219 AUC0–t was calculated using linear up/log down trapezoidal method up to the last measured concentration at time t (Ct). AUC0–∞ was calculated as AUC0–t + Ct/λ. Clearance (CL) was calculated by dose/AUC0–∞. Other pharmacokinetic parameters included plasma peak concentration (Cmax), the time of Cmax (Tmax) and volume of distribution at steady state (Vss). Oral bioavailability (%F) was calculated by the equation: %F = (AUC0–∞ PO/AUC0–∞ IV) × (Dose IV/Dose PO).

[3] abbreviates: male, C57BL/6J, plasma, 1 mg/kg intravenous.
Setting [4] is: male, C57BL/6J, plasma, 10 mg/kg oral.

Where two headings read alike, the source gives them in different places.

Turning to `COc1ccc(Cc2cc([C@@H]3O[C@H](SC)[C@@H](O)[C@H](O)[C@H]3O)ccc2Cl)cc1` [LP-925219], it took 22.6 ± 1 nM to reach half-maximal inhibition in series [1] (IC50). In series [2] (setting [3]), this compound displayed an AUC(0-inf) of 1.41 ± 0.04 µM·h, an area under the curve AUC(0-t) of 1.214 ± 0.012 µM·h, a Cmax of 1440 ± 97 nM and a clearance of 29 ± 1 mL/min/kg. Also, the half-life in series [2] (setting [3]) is 2.8 ± 0.7 h. Moreover, the Vd in series [2] (male, C57BL/6J, plasma, 1 mg/kg intravenous, read-out: Vss) came to 4.4 ± 0.6 L/kg. Also, in series [2] (setting [4]), the AUC(0-t) stood at 11.2 µM·h, the peak level (Cmax) was 3160 ± 802 nM, the time to peak (Tmax) stood at 0.3 h and the half-life was 7 ± 0.9 h. The bioavailability in series [2] (male, C57BL/6J, plasma, 10 mg/kg oral vs 1 mg/kg intravenous, read-out: %F) amounted to 87 ± 21%. Moreover, the concentration at 6 h in series [2] (male, C57BL/6J, plasma, 10 mg/kg oral, 6 h, read-out: plasma level at 6 h postdosing) was 617 ± 107 nM. For the same compound, the concentration at 24 h in series [2] (male, C57BL/6J, plasma, 10 mg/kg oral, 24 h, read-out: plasma level at 24 h post dosing) amounted to 100 ± 43 nM. The bioavailability in series [2] (male, C57BL/6J, plasma, 10 mg/kg oral, read-out: bioavailability (%F)) worked out at 87%. Further, in series [2] (10 mg/kg oral), the “AUC0-∞” value was 12,214 ± 3037 nmo/L*h. Further, the “plasma level at 24 h post dosing” value in series [2] (10 mg/kg oral, 24 h, 10 mg/kg) amounted to 100 nM.

By IC50 is commonly meant the point on the concentration scale where inhibition reaches its midpoint. The AUC(0-inf) is total exposure, with the tail of the curve extrapolated. The low end stands for less exposure, the high end for more exposure. One may read the AUC(0-t) as exposure summed from dosing to a finite time, without extrapolation to infinity. Low readings indicate low exposure, high ones high exposure. In general, Cmax refers to the highest concentration seen after dosing. For orientation: half-life means how long it takes for the measured level to halve. High values mean slow loss, low ones fast loss. The Tmax is the time at which the peak concentration occurs.

The values are drawn from PMC4448982, “LP-925219 maximizes urinary glucose excretion in mice by inhibiting both renal SGLT1 and SGLT2” (Pharmacology Research & Perspectives, 2015).
